Where “and” joins values, the source holds several entries; their conditions need not be identical. Identical values can stand only once. Like-named read-outs stand apart in the source and are kept apart here.
Columns and labels:
[1] = tested on: total INa (VGSCs naturally expressed on dorsal root ganglion sensory neurons); test: Dose–response inhibition of total INa peak, whole-cell patch clamp; assay type: cell-based, rat
[2] = tested on: TTX-R INa (VGSCs of DRG neurons); assay type: cell-based, rat
[3] = tested on: total INa (VGSCs of DRG neurons); test: Voltage dependence of Na+ conductance activation (I-V and G-V curves), total INa; assay type: cell-based, rat; conditions: EUG 2 mM, LID 1 mM
[4] = tested on: TTX-R INa (VGSCs of DRG neurons); test: Voltage dependence of Na+ conductance activation (I-V and G-V curves), TTX-R INa; assay type: cell-based, rat; conditions: EUG 2 mM, LID 1 mM
[5] = tested on: total INa (VGSCs of DRG neurons); test: Steady-state inactivation, 100-ms conditioning pre-pulses, total INa; assay type: cell-based, rat; conditions: EUG 2 mM, LID 1 mM
[6] = tested on: TTX-R INa (VGSCs of DRG neurons); assay type: cell-based, rat; conditions: EUG 2 mM, LID 1 mM
[7] = tested on: total INa (VGSCs of DRG neurons); test: Inhibition in depolarization time series at 2 and 5 Hz, total INa; assay type: cell-based, rat; conditions: EUG 2 mM, LID 1 mM
[8] = tested on: TTX-R INa (VGSCs of DRG neurons); assay type: cell-based, rat; conditions: EUG 2 mM, LID 1 mM; remark: listed apart in the source
[9] = tested on: total INa (VGSCs of DRG neurons); test: Slow inactivation entry, three-pulse protocol, total INa; assay type: cell-based, rat
[10] = tested on: TTX-R INa (VGSCs of DRG neurons); test: Slow inactivation entry, three-pulse protocol, TTX-R INa; assay type: cell-based, rat
[11] = tested on: persistent total INa (DRG neurons); test: Persistent total INa at the end of 50-ms depolarizing pulses; assay type: cell-based, rat; conditions: EUG 2 mM, LID 1 mM
[12] = tested on: total INa (VGSCs of DRG neurons); test: INa inactivation time constants during test pulse, total INa; assay type: cell-based, rat
[13] = tested on: TTX-R INa (VGSCs of DRG neurons); assay type: cell-based, rat; remark: listed apart in the source
VGSCs = tested on: VGSCs; design: method as in Clarkson et al., 1988; Sheets et al., 2010; conditions: 10-s conditioning pulse; ref Clarkson et al., 1988; Sheets et al., 2010; cited from earlier work
[14] = tested on: total INa (VGSCs of DRG neurons); conditions: EUG 2 mM, LID 1 mM
[15] = individual cells, during exposure to EUG 2 mM or LID 1 mM

CCN(CC)CC(=O)Nc1c(C)cccc1C [LID, lidocaine]
Pre-inhibition of total INa ([1]; LID at 0.5 mM): 25% | Reversibility of inhibition after drug washout ([1]; total INa): fully reversible | Dose response curves' data, Average (fractional current), LID (EUG 1.3 mM) ([1]; total INa, LID 0.1 mM in the presence of EUG 1.3 mM): 0.98 | Dose response curves' data, Average (fractional current), LID (EUG 1.3 mM) ([1]; total INa, LID 0.3 mM in the presence of EUG 1.3 mM): 0.63 | Dose response curves' data, Average (fractional current), LID (EUG 1.3 mM) ([1]; total INa, LID 1 mM in the presence of EUG 1.3 mM): 0.45 | Dose response curves' data, Average (fractional current), LID (EUG 1.3 mM) ([1]; total INa, LID 3 mM in the presence of EUG 1.3 mM): 0.19 | Dose response curves' data, Average (fractional current), LID (EUG 1.3 mM) ([1]; total INa, LID 10 mM in the presence of EUG 1.3 mM): 0.08 | Hill coefficient ([1]; total INa, drug alone): 1 and 1.02 ± 0.169 | Dose response curves' data, Average (fractional current) ([1]; total INa, drug at 0.001 mM): 1.00 | Dose response curves' data, Average (fractional current) ([1]; total INa, drug at 0.03 mM): 0.95 | Dose response curves' data, Average (fractional current) ([1]; total INa, drug at 0.1 mM): 0.89 | Dose response curves' data, Average (fractional current) ([1]; total INa, drug at 0.3 mM): 0.79 | Dose response curves' data, Average (fractional current) ([1]; total INa, drug at 1 mM): 0.67 | Dose response curves' data, Average (fractional current) ([1]; total INa, drug at 3 mM): 0.29 | Dose response curves' data, Average (fractional current) ([1]; total INa, drug at 10 mM): 0.09 | IC50 ([1]; total INa, holding −110 mV, test +20 mV, drug alone, read-out: IC50): 1420 ± 169 µM | Time series of INa blockade, Average (normalized current) ([1]; total INa, time 15 sec, drug exposure): 0.63 | Time series of INa blockade, Average (normalized current) ([1]; total INa, time 20 sec, drug exposure): 0.63 | Time series of INa blockade, Average (normalized current) ([1]; total INa, time 25 sec, drug exposure): 0.63 | Time series of INa blockade, Average (normalized current) ([1]; total INa, time 30 sec, recovery): 0.99 | Time series of INa blockade, Average (normalized current) ([1]; total INa, time 35 sec, recovery): 1.01 | Time series of INa blockade, Average (normalized current) ([1]; total INa, time 40 sec, recovery): 1.01 | Hill coefficient [2]: 0.67 ± 0.088 | Reversibility of inhibition after drug washout [2]: fully reversible | Dose response curves' data, Average (fractional current) ([2]; drug at 0.01 mM): 0.82 | Dose response curves' data, Average (fractional current) ([2]; drug at 0.1 mM): 0.78 | Dose response curves' data, Average (fractional current) ([2]; drug at 0.3 mM): 0.55 | Dose response curves' data, Average (fractional current) ([2]; drug at 1 mM): 0.38 | Dose response curves' data, Average (fractional current) ([2]; drug at 3 mM): 0.26 | Dose response curves' data, Average (fractional current) ([2]; drug at 10 mM): 0.06 | Dose response curves' data, Average (fractional current) ([2]; drug at 30 mM): 0.00 | IC50 ([2]; holding −110 mV, test +20 mV, read-out: IC50): 440 ± 87 µM | Time series of INa blockade, Average (normalized current) ([2]; time 15 sec, drug exposure): 0.700 | Time series of INa blockade, Average (normalized current) ([2]; time 20 sec, drug exposure): 0.688 | Time series of INa blockade, Average (normalized current) ([2]; time 25 sec, drug exposure): 0.698 | Time series of INa blockade, Average (normalized current) ([2]; time 30 sec, recovery): 0.954 | Time series of INa blockade, Average (normalized current) ([2]; time 35 sec, recovery): 0.981 | Time series of INa blockade, Average (normalized current) ([2]; time 40 sec, recovery): 1.000 | Max slope-act [3]: 5.4 ± 0.55 (n = 5) mV/e-fold | V1/2-act [3]: −15.6 ± 1.87 (n = 5) ns mV | Max slope-act in individual cells ([3]; individual cells): 3.305 mV/efold and 5.718 mV/efold and 5.241 mV/efold and 6.129 mV/efold and 6.443 mV/efold | V1/2-act in individual cells ([3]; individual cells): -10.84 mV and -17.68 mV and -19.58 mV and -11.29 mV and -18.64 mV | Max slope-act [4]: 7.6 ± 0.84 (n = 9) mV/e-fold | V1/2-act [4]: −15.3 ± 3.51 (n = 9) ns mV | Max slope-act in individual cells ([4]; individual cells): 2.416 mV/efold and 6.095 mV/efold and 7.402 mV/efold and 6.184 mV/efold and 9.974 mV/efold and 8.405 mV/efold and 10.98 mV/efold and 7.92 mV/efold and 8.84 mV/efold | V1/2-act in individual cells ([4]; individual cells): 2.959 mV and -9.166 mV and -6.571 mV and -19.84 mV and -6.716 mV and -25.02 mV and -21.81 mV and -25.87 mV and -25.3 mV | Shift of the steady-state inactivation curve, on average ([5]; 100-ms conditioning pulse): −5 mV | Max slope-inact [5]: −10.2 ± 0.50 (n = 6) ns mV/e-fold | V1/2-inact [5]: −50.6 ± 3.04 (n = 6) mV | Max slope-inact in individual cells ([5]; individual cells): -10.01 mV/efold and -11.35 mV/efold and -9.163 mV/efold and -11.45 mV/efold and -10.7 mV/efold | V1/2-inact in individual cells ([5]; individual cells): -42.62 mV and -59.61 mV and -54.7 mV and -48.47 mV and -56.32 mV | Shift of the steady-state inactivation curve, on average ([6]; 100-ms conditioning pulse): −4 mV | Max slope-inact [6]: −7.2 ± 1.24 (n = 9) ns mV/e-fold | V1/2-inact [6]: −32.6 ± 2.86 (n = 9) mV | Max slope-inact in individual cells ([6]; individual cells): -4.454 mV/efold and -5.078 mV/efold and -4.311 mV/efold and -4.855 mV/efold and -12.65 mV/efold and -5.321 mV/efold and -10.59 mV/efold and -13.14 mV/efold and -5.017 mV/efold | V1/2-inact in individual cells ([6]; individual cells): -13.3 mV and -32.45 mV and -43.07 mV and -41.77 mV and -33.88 mV and -29.54 mV and -30.3 mV and -34.82 mV and -34 mV | Fractional inhibition, 2 Hz, 1st pulse [7]: 0.46 ± 0.034 (n = 7) | Fractional inhibition, 2 Hz, 20th pulse [7]: 0.54 ± 0.044 (n = 7) | Fractional inhibition, 5 Hz, 1st pulse [7]: 0.47 ± 0.021 (n = 5) | Fractional inhibition, 5 Hz, 20th pulse [7]: 0.81 ± 0.055 (n = 5) | Fractional current after blockade, 2 Hz, 1st pulse, individual cells ([7]; individual cells): 0.42 and 0.6 and 0.65 and 0.46 and 0.55 and 0.48 and 0.66 | Fractional current after blockade, 2 Hz, 20th pulse, individual cells ([7]; individual cells): 0.57 and 0.34 and 0.45 and 0.42 and 0.58 and 0.31 and 0.51 | Fractional current after blockade, 5 Hz, 1st pulse, individual cells ([7]; individual cells): 0.73 and 0.48 and 0.51 (2×) and 0.60 | Fractional current after blockade, 5 Hz, 20th pulse, individual cells ([7]; individual cells): 0.53 and 0.06 and 0.07 and 0.25 and 0.26 | Fractional inhibition, 2 Hz, 1st pulse [8]: 0.40 ± 0.025 (n = 8) | Fractional inhibition, 2 Hz, 20th pulse [8]: 0.55 ± 0.040 (n = 8) | Fractional inhibition, 5 Hz, 1st pulse [8]: 0.37 ± 0.027 (n = 7) | Fractional inhibition, 5 Hz, 20th pulse [8]: 0.64 ± 0.054 (n = 7) | Fractional current after blockade, 2 Hz, 1st pulse, individual cells ([8]; individual cells): 0.58 and 0.49 and 0.64 and 0.53 and 0.56 and 0.59 and 0.67 and 0.68 | Fractional current after blockade, 2 Hz, 20th pulse, individual cells ([8]; individual cells): 0.3 (2×) and 0.5 and 0.51 and 0.46 and 0.57 and 0.50 and 0.41 | Fractional current after blockade, 5 Hz, 1st pulse, individual cells ([8]; individual cells): 0.55 and 0.51 and 0.68 (2×) and 0.62 and 0.69 | Fractional current after blockade, 5 Hz, 20th pulse, individual cells ([8]; individual cells): 0.18 and 0.15 and 0.34 and 0.50 and 0.42 | Fast inactivation entry time constant ([9]; EUG 2 mM, LID 1 mM): 25.04 ± 10.996 ms | Fractional current when P1 = 2 m ([9]; EUG 2 mM, LID 1 mM): 0.62 ± 0.067 | Percent fast component (slow inactivation entry) ([9]; EUG 2 mM, LID 1 mM): 59.86 ± 4.320 % | Slow inactivation entry time constant ([9]; EUG 2 mM, LID 1 mM): 292.87 ± 117.879 s | Slow inactivation state entry kinetics of INa, individual cells [9, 15]: 84.13 and 39.12 and 7.878 and 39.45 and 54.65 | Fast inactivation entry time constant ([10]; EUG 2 mM, LID 1 mM): 33.05 ± 11.57 ms | Fractional current when P1 = 2 m ([10]; EUG 2 mM, LID 1 mM): 0.76 ± 0.049 | Percent fast component (slow inactivation entry) ([10]; EUG 2 mM, LID 1 mM): 35.03 ± 6.913% | Slow inactivation entry time constant ([10]; EUG 2 mM, LID 1 mM): 287.01 ± 49.765 s | Slow inactivation state entry kinetics of INa, individual cells [10, 15]: 210.90 and 156.80 and 90.580 and 123.40 and 113.30 | Inhibition of persistent total INa after 50-ms depolarization [11]: fails to inhibit | Effect on inactivation time constants [12]: unaffected | Effect on inactivation time constants [13]: unaffected | Shift of the available curve (VGSCs): 10 mV | Time constant of the inhibiting effect increase with P1 duration at −70 mV [14]: 709 ms and ~700 ms
